Measurements as given in ChEMBL document CHEMBL1201862, “PubChem BioAssay data set” (2004).
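Tested at 5 concentrations; 48 h exposure; 96-well plates; endpoints linearly interpolated, else capped at highest concentration. GI50: concentration for 50% inhibition of growth.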 The source made the active and inactive calls. No stated cut-off is given here; in the data, active = GI50 up to about 1.1 µM and inactive = higher.

How the values were obtained:
Assay in all cases: NCI-60 cell line screen, 48 h
[1] = tested on: RXF 393
[2] = tested on: NCI-H23
[3] = tested on: IGROV-1
[4] = tested on: OVCAR-8
[5] = tested on: SR
[6] = tested on: SNB-19
[7] = tested on: SK-MEL-5
[8] = tested on: UACC-62
[9] = tested on: SF-539
[10] = tested on: HT-29
[11] = tested on: RPMI-8226
[12] = tested on: HOP-62
[13] = tested on: SF-268
[14] = tested on: EKVX
[15] = tested on: SW-620
[16] = tested on: NCI-H522
[17] = tested on: LOX IMVI
[18] = tested on: HCT-116
[19] = tested on: SN12C
[20] = tested on: UACC-257

Measured: GI50

CC1=C(O)C(=O)C2C(=O)C1C(C)C2c1ccc(Cl)cc1 (configuration not stated)
inactive: [1] > 100 µM | [2] > 100 µM | [3] > 100 µM | [4] > 100 µM | [5] > 100 µM | [6] > 100 µM | [7] > 100 µM | [8] > 100 µM | [9] > 100 µM | [10] > 100 µM | [11] > 100 µM | [12] > 100 µM | [13] > 100 µM | [14] > 100 µM | [15] > 100 µM | [16] > 100 µM | [17] > 100 µM

S=C1SCC2CCCN12 (configuration not stated)
inactive: [1] > 100 µM | [3] > 100 µM | [4] > 100 µM | [5] > 100 µM | [6] > 100 µM | [7] > 100 µM | [18] > 100 µM | [19] > 100 µM | [8] > 100 µM | [9] > 100 µM | [10] > 100 µM | [20] > 100 µM | [11] > 100 µM | [12] > 100 µM | [13] > 100 µM | [15] > 100 µM | [16] > 100 µM | [17] > 100 µM

CN(C(=O)c1ccc(Cl)cc1)C(=S)N1CCN(c2ccccc2)CC1
inactive: [1] > 100 µM | [2] > 100 µM | [3] > 100 µM | [4] > 100 µM | [5] 35.2 µM | [6] > 100 µM | [7] 35.5 µM | [19] > 100 µM | [8] 92.5 µM | [10] 77.6 µM | [20] 71.4 µM | [11] 64.3 µM | [13] > 100 µM | [15] > 100 µM | [16] 51.5 µM | [17] > 100 µM

N#C/N=C1/c2ccccc2/C(=N/C#N)c2cc(CO)ccc21
inactive: [1] 27.6 µM | [2] 27.1 µM | [3] 29.4 µM | [4] 37.8 µM | [5] 17 µM | [6] 51.8 µM | [7] 27 µM | [18] 29.2 µM | [19] 24.8 µM | [9] 51.2 µM | [10] 26.7 µM | [20] 26.6 µM | [11] 2.95 µM | [12] 42.6 µM | [13] 39.2 µM | [14] 27.7 µM | [15] 25.6 µM | [16] 39 µM | [17] 30.5 µM

Cc1cc(=O)cc2sc3c(C)cccc3nc1-2
inactive: [1] 35.4 µM | [2] 37.2 µM | [3] 24.9 µM | [4] 27.7 µM | [5] 22.9 µM | [6] > 100 µM | [7] 17.7 µM | [18] 22.4 µM | [19] 23.6 µM | [9] 31.1 µM | [10] 35.1 µM | [20] 62.8 µM | [11] 19.9 µM | [12] 95.3 µM | [13] 11.5 µM | [15] 4.56 µM | [16] 25.1 µM | [17] 17.3 µM

Cc1cn(CC2=NCCN2)c(=O)[nH]c1=O
inactive: [1] > 100 µM | [2] > 100 µM | [3] > 100 µM | [4] > 100 µM | [5] > 100 µM | [6] > 100 µM | [7] > 100 µM | [18] > 100 µM | [19] > 100 µM | [8] > 100 µM | [10] > 100 µM | [20] > 100 µM | [11] > 100 µM | [12] > 100 µM | [13] > 100 µM | [14] > 100 µM | [15] > 100 µM | [16] > 100 µM | [17] > 100 µM

CSc1c(C(N)=S)c(N)nn1-c1ccccc1
inactive: [1] > 100 µM | [2] > 100 µM | [3] > 100 µM | [4] > 100 µM | [5] > 100 µM | [6] > 100 µM | [7] > 100 µM | [18] > 100 µM | [19] > 100 µM | [8] > 100 µM | [9] > 100 µM | [10] > 100 µM | [20] > 100 µM | [11] > 100 µM | [13] > 100 µM | [14] > 100 µM | [15] > 100 µM | [16] > 100 µM | [17] > 100 µM

O=c1c2ccccc2[nH]c2c(O)ccc(O)c12
inactive: [1] 11.7 µM | [2] 27.4 µM | [3] 15.1 µM | [4] 17.9 µM | [5] 7.33 µM | [6] 38.7 µM | [18] 20.7 µM | [19] 14.2 µM | [8] 16.7 µM | [9] 27.6 µM | [10] 38.6 µM | [20] 18.1 µM | [11] 22.8 µM | [12] > 100 µM | [13] 25.4 µM | [14] > 41.7 µM | [15] 18 µM | [16] 15.1 µM | [17] 17.8 µM

CC(=O)N1C(Nc2cccc3nc(C)ccc23)CCN1c1ccccc1 (configuration not stated)
inactive: [1] > 10 µM | [2] > 10 µM | [3] > 10 µM | [4] > 10 µM | [5] 7.19 µM | [6] > 10 µM | [7] > 10 µM | [18] > 10 µM | [19] > 10 µM | [9] > 10 µM | [10] > 10 µM | [20] > 10 µM | [11] > 10 µM | [12] > 10 µM | [13] > 10 µM | [14] > 10 µM | [15] 5.73 µM | [16] > 10 µM | [17] > 10 µM

O=C(CCc1cc(-c2ccco2)n(-c2ccc([N+](=O)[O-])cc2[N+](=O)[O-])n1)Nc1ccccc1
inactive: [1] > 100 µM | [2] > 100 µM | [3] > 100 µM | [4] > 100 µM | [5] > 100 µM | [6] > 100 µM | [7] > 100 µM | [18] > 100 µM | [19] > 100 µM | [8] > 100 µM | [9] > 100 µM | [10] > 100 µM | [20] > 100 µM | [11] > 100 µM | [12] > 100 µM | [13] > 100 µM | [14] > 100 µM | [15] > 100 µM | [16] > 100 µM

CNc1ccc(Cl)cc1C(=O)N1CCC[C@H]1CO
inactive: [1] > 100 µM | [2] > 100 µM | [3] > 84.7 µM | [4] > 100 µM | [5] 80.9 µM | [6] > 100 µM | [18] > 100 µM | [19] > 100 µM | [8] > 100 µM | [9] > 100 µM | [10] > 100 µM | [20] > 100 µM | [11] > 100 µM | [12] > 100 µM | [13] > 100 µM | [14] > 100 µM | [15] > 100 µM | [16] > 100 µM | [17] > 100 µM
